Columns and labels:
[1] = target: T1, Bifunctional epoxide hydrolase 2 (Rattus norvegicus, UniProt P80299); assay: Inhibition of recombinant rat soluble epoxide hydrolase assessed as increase in fluorescence intensity by fluorescence plate reader
T1 sequence (P80299 whole entry): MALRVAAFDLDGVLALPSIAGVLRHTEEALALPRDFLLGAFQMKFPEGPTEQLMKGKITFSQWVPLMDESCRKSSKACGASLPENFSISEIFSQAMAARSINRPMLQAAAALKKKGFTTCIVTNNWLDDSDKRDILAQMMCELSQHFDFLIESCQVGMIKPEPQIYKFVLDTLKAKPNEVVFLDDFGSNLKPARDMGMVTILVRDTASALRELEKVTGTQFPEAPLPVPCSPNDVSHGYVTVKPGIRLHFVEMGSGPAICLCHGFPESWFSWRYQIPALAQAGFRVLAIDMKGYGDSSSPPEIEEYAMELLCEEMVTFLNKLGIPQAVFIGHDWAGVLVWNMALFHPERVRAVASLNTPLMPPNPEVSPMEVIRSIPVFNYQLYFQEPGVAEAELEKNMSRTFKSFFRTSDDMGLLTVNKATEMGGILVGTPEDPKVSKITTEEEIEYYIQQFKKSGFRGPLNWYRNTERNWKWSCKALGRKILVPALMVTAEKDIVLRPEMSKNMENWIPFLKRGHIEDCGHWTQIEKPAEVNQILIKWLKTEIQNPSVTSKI

[2] = target: T2, Bifunctional epoxide hydrolase 2 (Homo sapiens, UniProt P34913); assay: Inhibition of recombinant human soluble epoxide hydrolase assessed as increase in fluorescence intensity by fluorescence plate reader
T2 sequence (P34913 whole entry): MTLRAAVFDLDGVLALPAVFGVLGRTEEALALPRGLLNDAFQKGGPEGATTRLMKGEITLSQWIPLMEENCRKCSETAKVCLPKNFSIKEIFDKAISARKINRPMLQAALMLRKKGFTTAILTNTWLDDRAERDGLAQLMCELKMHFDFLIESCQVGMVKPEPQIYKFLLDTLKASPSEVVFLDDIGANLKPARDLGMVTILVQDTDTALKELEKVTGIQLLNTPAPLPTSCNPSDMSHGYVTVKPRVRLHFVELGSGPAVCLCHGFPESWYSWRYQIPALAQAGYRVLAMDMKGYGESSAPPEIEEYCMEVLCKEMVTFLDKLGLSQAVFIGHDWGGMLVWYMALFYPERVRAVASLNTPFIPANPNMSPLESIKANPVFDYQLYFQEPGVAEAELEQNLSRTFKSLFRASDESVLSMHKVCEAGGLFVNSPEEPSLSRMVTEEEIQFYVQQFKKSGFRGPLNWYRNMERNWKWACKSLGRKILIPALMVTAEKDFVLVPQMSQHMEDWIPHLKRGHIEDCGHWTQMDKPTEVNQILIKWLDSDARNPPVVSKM

Structure (SMILES)	IC50 [1] [nM]	IC50 [2] [nM]
O=C(O)CCc1ccc(OC2CCN(C(=O)N[C@@H]3[C@@H](c4ccccc4)[C@H]3c3ccccc3)CC2)cc1	3.9	2.3
O=C(O)CCc1ccc(OC2CCN(C(=O)N[C@@H]3[C@@H](c4ccc(F)cc4)[C@H]3c3ccc(F)cc3)CC2)cc1	3.2	2.1
O=C(N[C@@H]1[C@@H](c2ccccc2)[C@H]1c1ccccc1)N1CCCCC1	0.2	1.8
CN1CCN(C(=O)N[C@@H]2[C@@H](c3ccccc3)[C@H]2c2ccccc2)CC1	27.7	14.4
CS(=O)(=O)N[C@@H]1CCCN(C(=O)N[C@@H]2[C@@H](c3ccccc3)[C@H]2c2ccccc2)C1 (mixture of isomers)	0.8	1.4
O=C(N[C@@H]1[C@@H](c2ccccc2)[C@H]1c1ccccc1)N1CCC[C@@H](NS(=O)(=O)c2ccc(F)cc2)C1 (mixture of isomers)	0.2	0.7
O=C(O)CCc1ccc(OC2CCN(C(=O)N[C@H]3C[C@@H]3c3ccccc3)CC2)cc1 (racemic)	55.6	19.1
CC1(C)[C@H](NC(=O)N2CCC(Oc3ccc(CCC(=O)O)cc3)CC2)[C@H]1c1ccccc1 (racemic)	> 100	> 100
C[C@H]1[C@H](NC(=O)N2CCC(Oc3ccc(CCC(=O)O)cc3)CC2)[C@H]1c1ccccc1 (racemic)	11.7	12
C[C@@H]1[C@H](NC(=O)N2CCC(Oc3ccc(CCC(=O)O)cc3)CC2)[C@H]1c1ccccc1 (racemic)	> 100	75.7
